Tested on: ethanol-induced ulcer
Test: Anti-ulcer activities, ethanol-induced ulcer
Type: in vivo
Conditions: po, 1 h; rat, perorally, dose 10 μg/kg, 30 min before ethanol
Experimental: 1. Anti-ulcer activities, Ethanol-induced ulcer
Inhibitory effects of ethanol-induced ulcer are determined by the method of A. Robert (Gastroenterology 77, 433-43). Rats are fasted for 24 hrs. and are given 1 ml of absolute ethanol perorally. 1 hour after administration of ethanol, the stomach of the rat is removed. The length of each ulcer occurring in the grandulor stomach is determined and each ulcer in one rat is acounted as ulcer-index. The test compounds are given perorally 30 minutes before ethanol administration.

Going from `O=C(O)CCCC=C1C[C@H]2C[C@@H](O)[C@H](/C=C/[C@@H](O)C3COc4ccccc4O3)[C@H]2C1` (stereo partly drawn) [Compound 5, 15α-Hydroxy-15-(benzodioxane-2-yl)-carbacyclin] to `O=C(O)COCCC1=C[C@H]2C[C@@H](O)[C@H](/C=C/[C@@H](O)C3COc4ccccc4O3)[C@H]2C1` (stereo partly drawn) [Compound 45, 15α-Hydroxy-15-(1,4-benzodioxane-2-yl)-3-oxa-isocarbacyclin], the inhibition in vivo at 0.01 mg/kg falls from 71.9% to 58.9%.

`CC1([C@H](O)/C=C/[C@@H]2[C@H]3CC(CCOCC(=O)O)=C[C@H]3C[C@H]2O)Cc2ccccc2C1` [Compound 41, 15α-Hydroxy-15-(2-methylindan-2-yl)-3-oxa-isocarbacyclin] gave an inhibition in vivo at 0.01 mg/kg of 64.2%.

Same assay, conditions: po, 1 h; rat, perorally, dose 30 μg/kg, 30 min before ethanol

Going from `O=C(O)CCCC=C1C[C@H]2C[C@@H](O)[C@H](C#C[C@@H](O)C3Cc4ccccc4C3)[C@H]2C1` [Compound 3, 13,14-Dehydro-15α-hydroxy-15-(indan-2-yl)-carbacyclin] to `O=C(O)COCC=C1C[C@H]2C[C@@H](O)[C@H](/C=C/[C@@H](O)C3Cc4ccccc4C3)[C@H]2C1` [Compound 35, 15α-Hydroxy-15-(indan-2-yl)-3-oxa-carbacyclin], the inhibition in vivo at 0.03 mg/kg falls from 93.4% to 44.6%.

Compared with `COc1ccc2c(c1)OCC([C@H](O)/C=C/[C@@H]1[C@H]3CC(=CCCCC(=O)O)C[C@H]3C[C@H]1O)O2` (stereo partly drawn) [Compound 11, 15α-Hydroxy-15-(6-methoxybenzodioxane-2-yl)-carbacyclin], `CC1([C@H](O)/C=C/[C@@H]2[C@H]3CC(=CCOCC(=O)O)C[C@H]3C[C@H]2O)Cc2ccccc2C1` [Compound 33, 15α-Hydroxy-15-(2-methylindan-2-yl)-3-oxa-carbacyclin] is lower in inhibition in vivo at 0.03 mg/kg: 82.1% for the first, 47.6% for the second.

Same assay, conditions: po, 1 h; rat, perorally, dose 100 μg/kg, 30 min before ethanol

First: O=C(O)CCCC=C1C[C@H]2C[C@@H](O)[C@H](/C=C/[C@@H](O)c3ccc4c(c3)OCCO4)[C@H]2C1 [Compound 1, 15α-Hydroxy-15-(benzodioxane-6-yl)-carbacyclin]
Second: CC1([C@H](O)/C=C/[C@@H]2[C@H]3CC(=CCCCC(=O)O)C[C@H]3C[C@H]2O)COc2ccccc2O1 (stereo partly drawn) [Compound 17, 15β-Hydroxy-15-(2-methylbenzodioxane-2-yl)-carbacyclin]
The inhibition in vivo at 0.1 mg/kg of the first is lower: 41.6% for the first, 72.6% for the second.

Compared with `O=C(O)CCCC=C1C[C@H]2C[C@@H](O)[C@H](/C=C/[C@@H](O)C3Cc4ccccc4C3)[C@H]2C1` [Compound 7, 15α-Hydroxy-15-(indan-2-yl)-carbacyclin], `O=C(O)COCCC1=C[C@H]2C[C@@H](O)[C@H](/C=C/[C@@H](O)C3Cc4ccccc4C3)[C@H]2C1` [Compound 43, 15α-Hydroxy-15-(indan-2-yl)-3-oxa-isocarbacyclin] is lower in inhibition in vivo at 0.1 mg/kg: 68.7% for the first, 51.8% for the second.

Work on `O=C(O)COCC=C1C[C@H]2C[C@@H](O)[C@H](/C=C/[C@@H](O)C3COc4ccccc4O3)[C@H]2C1` (stereo partly drawn) [Compound 37, 15α-Hydroxy-15-(1,4-benzodioxane-2-yl)-3-oxa-carbacyclin] yielded an inhibition in vivo at 0.1 mg/kg of 51.6%.

Same assay, conditions: po, 1 h; rat, perorally, dose 300 μg/kg, 30 min before ethanol

First: Cc1ccc2c(c1)OCC([C@H](O)/C=C/[C@@H]1[C@H]3CC(=CCCCC(=O)O)C[C@H]3C[C@H]1O)O2 (stereo partly drawn) [Compound 9, 15α-Hydroxy-15-(6-methylbenzodioxane-2-yl)-carbacyclin]
Second: O=C(O)CCCC=C1C[C@H]2C[C@@H](O)[C@H](/C=C/[C@@H](O)C3Cc4ccc([N+](=O)[O-])cc4C3)[C@H]2C1 (stereo partly drawn) [Compound 23, 15α-Hydroxy-15-(5-nitroindan-2-yl)-carbacyclin]
The inhibition in vivo at 0.3 mg/kg of the first is lower: 80.6% for the first, 98.9% for the second.

Tested on: not listed separately
Test: Stability test in buffer solutions, by thin layer chromatography
Type: physicochemical
Conditions: pH 7.4, room temperature, 2 months
Experimental: About 1.5 mg of test compound was dissolved in a drop of methanol and diluted in each 1.5 ml of a buffer solution *adjusted to pH 5.2, 7.2, 7.4, 9.2, respectively. Stability test was carried out at 37° C. in the case of pH 5.2, 7.2, 9.2 and at room temperature in the case of pH 7.4,.
Using a thin layer chromatography as the identification method, the test solution in each buffer solution of pH 5.2, 7.2, 7.4 was extracted with ethyl acetate and in the case of the test solution of […], it was diluted with water, acidified at pH 4 with 10% HCl and extracted with ethyl acetate.
*pH 5.2 (0.2M Pottasium hydrogen phthalate)

With `O=C(O)CCCC=C1C[C@H]2C[C@@H](O)[C@H](/C=C/[C@@H](O)C3COc4ccccc4O3)[C@H]2C1` (stereo partly drawn) [Compound 5, 15α-Hydroxy-15-(benzodioxane-2-yl)-carbacyclin] the “Stability (change in thin layer chromatography)” value was “No change”.

— patent US4730060A, “Carbacyclin derivatives, method of manufacturing the same and therapeutic agents containing these compounds” (Kotobuki Seiyaku Co. Ltd., priority 1986, dated 1988)
